Where “and” joins values, the source holds several entries; their conditions need not be identical. Identical values can stand only once. Counter-ions that a name gives are not always drawn. Like-named read-outs stand apart in the source and are kept apart here. *1 amine or outer side, *2 acyl side, *3 side chain or, on linkers, in order; H or OH if unused. Where a SMILES comes first, the peptide text is derived from it. [ ]: non-standard residue; d: D form. X1 = NCCCC[C@H](N)CN([C@@H](CCCCN)C(=O)[*:2])[*:1]; Tle = CC(C)(C)[C@H](N)C(=O)O
How the values were obtained:
[1] = system: hippocampal neurons from Ntsr1^WT/WT mice; assay: Intracellular calcium release (Fluo-4) in hippocampal neurons from Ntsr1^WT/WT mice; format: cell-based, mouse
[2] = molecular target: T1, NTSR1-Venus (Mus musculus, UniProt O88319); assay: Multiphoton imaging of NTSR1-Venus internalization in acute SN/VTA brain slices; format: cell-based; conditions: 10 μM on slices recovered in 1 μM SR48692
T1 construct: monitoring endogenous NTSR1-Venus receptor endocytosis could differentiate NTSR1 agonists; endogenous in cells; host or cells: primary hippocampal neurons from homozygous NTSR1-Venus knock-in mice (C57BL/6N background)
Description: Male and female Ntsr1^Venus/Venus mice aged 5 weeks were anesthetized, and 250 μm-thick coronal slices containing substantia nigra pars compacta and ventral tegmental area were prepared. Cutting solution contained (in mM): 87 NaCl, 25 NaHCO3, 25 glucose, 75 sucrose, 2.5 KCl, 1.25 NaH2PO4, 0.5 CaCl2, and 7 MgCl2; bubbled with 5% CO2/95%O2; 4°C. Following cutting, slices were incubated in the same solution for 30 min at 33°C. For control experiments, slices were subsequently incubated in the same solution at room temperature until imaging. For antagonist experiments, slices were subsequently incubated in cutting solution with 1 μM SR48962 until imaging. SR48962 was prepared as a 1 mM stock in water.
Imaging solution referred to as aCSF contained (in mM): 125 NaCl, 2.5 KCl, 2 CaCl2, 1 MgCl2, 25 NaHCO3, 1.25 NaH2PO4, 25 glucose; bubbled with 5% CO2/95% O2; 31–34°C, ∼310 mOsm. For antagonist-only experiments, 1 μM SR48962 was added to the imaging solution. For antagonist plus agonist experiments, a baseline image was taken with no NTSR1 agonist or antagonist in the imaging solution, and subsequently, 10 μM PD149163 [prepared from a stock solution in water] was added to the imaging solution. As a precautionary measure, all components that were exposed to antagonist were rinsed first with 70% ethanol and then water. All components that were exposed to agonist were replaced between experiments.
For two-photon laser scanning microscopy (2PLSM), a 2-photon source (Coherent Ultra II, Santa Clara, CA, USA) was tuned to 920 nm for imaging. […] Both epi and transfluorescence were detected with R9110 photomultiplier tubes (Hamamatsu, Shizuoka, Japan). Laser power measured at the focal plane under the objective was between 8 and 34 mW. […]
To test whether NTSR1 receptors are indeed being bound by endogenous ligand in acute slice, we compared NTSR1 distribution in slices treated with the NTSR1 specific antagonist, SR48692 ([Gully et al., 1993]). […] NTSR1-Venus puncta were then quantified in the acquired image projections by counting vesicle-sized particles (Figure 5E). […]

[3] = system: Ntsr1^Venus/Venus and Ntsr1^WT/WT mice; assay: Locomotor activity in activity boxes after i.p. injection; format: in vivo, mouse
Description: Locomotor activity was measured using Plexiglas activity boxes (20 × 20 × 20 cm) surrounded by horizontal and vertical infrared sensor beams (Versamax Omnitech Electronics, Columbus, OH, USA) during the light phase. The total numbers of animals used in locomotion experiments were n = 16 Ntsr1^Venus/Venus and n = 15 Ntsr1^WT/WT mice. Animals were habituated to the room in singly housed cages with home bedding for 1 h, before being injected with either 0.9% saline, 0.2, 0.5, 1, 5 mg/kg, PD149163, dissolved in 0.9% saline, and returned to their home cages for 30 min. Then mice were placed in horizontally opposed chambers, and horizontal movement (cm) was measured over the course of 2 h, in bins of 10 min.
Having established evidence supporting functional NTSR1-Venus receptor signaling (Gq/Ca2+) and receptor endocytosis we next evaluated behavioral responses in these animals. […] First, when animals were not yet habituated to the activity chambers and only received saline injections, we observed somewhat higher activity counts for Ntsr1^Venus/Venus compared to Ntsr1^WT/WT animals (Supplementary Figure 1). […] A significant difference at 0.2 mg/kg and a trend that was not significant at higher doses (0.5, 1, or 5 mg/kg) was observed between Ntsr1^Venus/Venus and Ntsr1^WT/WT animals (Figure 2I). […]

[4] = molecular target: T2, NTSR1-RlucII (Mus musculus, UniProt O88319); assay: NTSR1-RlucII internalization ebBRET assay (NTSR1-RlucII donor, rGFP-CAAX acceptor) in HEK293 cells; format: cell-based
T2 construct: expressed in transfected cells; host or cells: HEK293 (HEK293SL)
T2 sequence (O88319 whole entry): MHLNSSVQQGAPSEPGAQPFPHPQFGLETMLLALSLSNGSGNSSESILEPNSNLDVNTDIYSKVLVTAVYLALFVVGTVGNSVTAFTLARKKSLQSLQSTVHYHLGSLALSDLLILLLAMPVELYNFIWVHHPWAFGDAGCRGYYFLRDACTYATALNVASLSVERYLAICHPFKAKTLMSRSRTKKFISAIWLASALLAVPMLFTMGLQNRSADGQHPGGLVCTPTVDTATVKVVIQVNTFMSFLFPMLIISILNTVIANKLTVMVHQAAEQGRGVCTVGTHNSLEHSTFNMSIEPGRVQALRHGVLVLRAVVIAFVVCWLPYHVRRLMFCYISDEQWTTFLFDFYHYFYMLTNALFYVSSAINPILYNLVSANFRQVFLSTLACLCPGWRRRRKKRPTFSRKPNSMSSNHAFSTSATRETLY
Description: Cells were maintained in Dulbecco’s Modified Eagle Medium (DMEM, Wisent, Saint-Jean-Baptiste, QC, Canada) supplemented with 10% fetal bovine serum (FBS, Wisent) and 1% antibiotics [100 U/mL penicillin and 100 μg/mL streptomycin (PS); Wisent]. Cells were grown at 37°C in 5% CO2 and 90% humidity and checked for mycoplasma contamination. Two days prior to experiments, cells were trypsinized (Wisent) and 35,000 cells were transfected with 1 μg of total DNA containing the appropriate expression vectors/biosensors. The total quantity of DNA was completed at 1 μg with salmon sperm DNA (Invitrogen, Waltham, MA, USA). Transfection was performed using the transfecting agent polyethylenimine 25 kD linear (PEI; Polysciences, Warrington, PA, USA) at a ratio of 3:1 PEI/DNA. Cells were then immediately plated onto poly-ornithine (Sigma-Aldrich) coated 96-well white culture plates (PerkinElmer, Waltham, MA, USA).
Forty-eight hours post-transfection, cells were washed once with phosphate-buffered saline (PBS) then incubated 1 h at 37°C in Tyrode buffer (137 mM NaCI, 0.9 mM KCI, 1 mM MgCI2, 1 1.9 mM NaHCO3, 3.6 mM NaH2PO4, 25 mM HEPES, 5.5 mM Glucose, and 1 mM CaCI2, pH 7.4). Cells were then treated with the ligands and prior to measurement treated with the substrate (5 min with 2.5 μM Coelantarazine 400a). Bioluminescence resonance energy transfer (BRET) was then measured between RlucII (BRET energy donor) and rGFP (enhanced bystander ebBRET acceptor)–tagged proteins. BRET values were read for 1 s per well using a Mithras™ LB940 Multimode Microplate Reader (Berthold Technologies, Bad Wildbad, Germany) for concentration–response curves. ebBRET values were obtained by calculating the ratio of the light emitted by the energy acceptor over the light emitted by the energy donor (donor 410 ± 70 nm/acceptor 515 ± 20 nm). Data were collected using the MicroWin 2000 software (Berthold Technologies, Bad Wildbad, Germany). They were then fitted and analyzed in GraphPad Prism (v9.0, GraphPad Software, Inc., San Diego, CA, USA).
A decrease in BRET indicates receptor loss from the plasma membrane. […] Data are expressed as raw BRET signal (Mean ± SEM) from five independent experiments.
We set-up an enhanced bystander bioluminescence energy resonance transfer (ebBRET) assay by fusing RlucII at the NTSR1 C-tail and expressing this construct together with rGFP-CAAX in HEK293 cells (Figure 1A).

T1 sequence (O88319 whole entry): as above

EC50 ([4]; NTSR1-RlucII, read-out: potency to induce NTSR1 internalization): 3.07e-07 M
EC50 ([4]; given as LogEC50 (negative sign), mean ± SEM, five independent experiments, read-out: Potency [LogEC50 (M)], NTSR1-RlucII internalization (converted)): 3.07e-07 M
SMILES: CCOC(=O)[C@H](CC(C)C)NC(=O)[C@@H](NC(=O)[C@H](Cc1c[nH]c2ccccc12)NC(=O)[C@@H]1CCCN1C(=O)[C@H](CCCCN)NC[C@@H](N)CCCCN)C(C)(C)C [PD149163, PD149163 tetrahydrochloride hydrate] (H-[X1]PW[Tle]L-OEt; N-terminus and C-terminus assumed)
intracellular calcium peak increase ([1]; 0.1 μM): 2 fold
intracellular calcium peak increase ([1]; 1 μM): 2 fold
vesicle-sized particle counts (NTSR1-Venus puncta) vs antagonist-only treated slices [2]: significantly higher than antagonist-only treated slices at 15, 30, 45, and 60 min
vesicle-sized particle counts (NTSR1-Venus puncta) vs control slices [2]: significantly higher than controls at 30, 45, and 60 min
hypolocomotion in Ntsr1^Venus/Venus and Ntsr1^WT/WT animals ([3]; 0.5 mg/kg i.p., measured 30 min after injection): induced NTSR1 mediated hypolocomotion to a similar extent
total distance traveled over 2 h as compared to saline animals ([3]; i.p. 0.2, 0.5, 1, 5 mg/kg, both genotypes): dose-dependent decrease
Efficacy (Raw BRET), NTSR1-RlucII internalization ([4]; decrease in BRET = receptor loss from membrane, mean ± SEM): −0.245 Raw BRET and −0.245 ± 0.008 Raw BRET

Source: publication PMC9745132, “Visualization of real-time receptor endocytosis in dopamine neurons enabled by NTSR1-Venus knock-in mice” (Frontiers in Cellular Neuroscience, 2022)
